Results: publication PMC3974799 (PLoS ONE, 2014)

Legend:
[1] = molecular target: T1, cytochrome bc1 complex (Btbc1), cyt b subunit (Bos taurus, UniProt P00157); assay: cyt c reduction assay with purified bc1; assay type: biochemical
T1 construct: gene MT-CYB; purified 11-subunit mitochondrial bc1 complex from beef heart; with cyt c1, iron-sulfur protein (bc1 complex)

[2] = molecular target: T1, cytochrome bc1 complex (Btbc1), cyt b subunit; assay: Lineweaver-Burk kinetics at […]; difference spectra; single turnover; assay type: biochemical
[3] = test system: T2, Complex III (cyt bc1 complex), cyt b subunit; assay: cyt c reduction with decylubiquinol in isolated mitochondria, […] inhibition at […]; assay type: cell-based, Phytophthora capsici; conditions: 4 µM
T2 construct: light mitochondrial fraction; with cyt c1, iron-sulfur protein (bc1 complex)

[4] = molecular target: T3, cytochrome bc1 complex (Rsbc1), cyt b subunit (Cereibacter sphaeroides, UniProt Q02761); assay: cyt c reduction assay with purified bc1; Lineweaver-Burk kinetics; assay type: biochemical
T3 construct: gene petB; purified hexahistidine-tagged 4-subunit bc1 complex; with cyt c1, iron-sulfur protein (bc1 complex)
T3 sequence (Q02761 2-445): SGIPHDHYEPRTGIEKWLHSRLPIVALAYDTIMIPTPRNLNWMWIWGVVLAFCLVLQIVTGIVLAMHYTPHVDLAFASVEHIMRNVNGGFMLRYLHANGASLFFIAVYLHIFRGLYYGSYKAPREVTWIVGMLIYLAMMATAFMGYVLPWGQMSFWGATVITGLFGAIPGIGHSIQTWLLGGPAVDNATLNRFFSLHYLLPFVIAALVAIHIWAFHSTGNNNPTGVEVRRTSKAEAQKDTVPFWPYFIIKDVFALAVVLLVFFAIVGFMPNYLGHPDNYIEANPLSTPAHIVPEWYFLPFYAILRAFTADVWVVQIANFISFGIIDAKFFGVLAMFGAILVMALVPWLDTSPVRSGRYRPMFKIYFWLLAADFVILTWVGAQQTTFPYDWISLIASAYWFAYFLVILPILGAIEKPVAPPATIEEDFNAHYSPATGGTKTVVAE

[5] = molecular target: T1, cytochrome bc1 complex (Btbc1), cyt b subunit; assay: cyt c reduction assay with purified bc1; also difference spectra and Lineweaver-Burk kinetics; assay type: biochemical

T1 sequence (P00157 whole entry): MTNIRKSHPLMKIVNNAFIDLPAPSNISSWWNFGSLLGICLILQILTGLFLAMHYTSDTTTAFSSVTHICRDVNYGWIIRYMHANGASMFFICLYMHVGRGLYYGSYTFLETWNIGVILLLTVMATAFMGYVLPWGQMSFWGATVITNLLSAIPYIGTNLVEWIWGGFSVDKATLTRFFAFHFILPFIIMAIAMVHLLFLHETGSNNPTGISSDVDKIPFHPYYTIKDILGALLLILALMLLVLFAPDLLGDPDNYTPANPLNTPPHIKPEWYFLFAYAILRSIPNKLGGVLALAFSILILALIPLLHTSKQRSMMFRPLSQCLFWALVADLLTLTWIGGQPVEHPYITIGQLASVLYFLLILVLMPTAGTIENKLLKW
T1 sequence (P13272 79-274 partner): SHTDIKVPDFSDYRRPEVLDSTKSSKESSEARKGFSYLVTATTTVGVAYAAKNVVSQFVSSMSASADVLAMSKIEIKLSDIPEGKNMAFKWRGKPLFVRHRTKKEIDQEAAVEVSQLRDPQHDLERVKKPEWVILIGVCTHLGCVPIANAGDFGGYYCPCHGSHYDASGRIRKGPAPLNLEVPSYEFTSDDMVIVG
T1 sequence (P00125 85-325 partner): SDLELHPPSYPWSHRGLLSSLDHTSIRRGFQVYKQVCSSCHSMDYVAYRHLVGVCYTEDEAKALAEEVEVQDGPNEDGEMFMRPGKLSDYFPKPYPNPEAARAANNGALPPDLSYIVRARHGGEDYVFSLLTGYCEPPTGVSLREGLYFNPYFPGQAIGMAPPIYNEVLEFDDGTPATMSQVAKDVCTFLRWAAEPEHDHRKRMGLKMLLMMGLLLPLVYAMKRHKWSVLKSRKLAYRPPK

## CO/C=C(/C(=O)OC)c1ccccc1Oc1cc(Oc2ccccc2C#N)ncn1 [azoxystrobin]
[1]
  IC50: 0.0477 µM

## CO/C(=C/C(N)=O)[C@H](C)[C@H](/C=C/c1csc(-c2csc([C@@H](C)/C=C/C=C/C(C)C)n2)n1)OC [myxothiazol]
[2]
  Lineweaver-Burk kinetics at 30 and 50 nM; difference spectra; single turnover: myxothiazol is a competitive inhibitor for the substrate quinol but a non-competitive inhibitor for cyt c

## CC(C)(C)c1ccc(/C(=C/C(=O)N2CCOCC2)c2ccnc(Cl)c2)cc1 [pyrimorph, (Z)-3-[(2-chloropyridine-4-yl)-3-(4-tert-butylphenyl)-acryloyl] morpholine]
[3]
  percent inhibition: 95.3
[4]
  IC50: 69.2 µM
[5]
  IC50: 85 µM

## C/C=C(C)/C=C/C=C/[C@H](OC)[C@@H](C)[C@@H](OC)[C@@H](C)CCc1oc2c(O)c(OC)cc(OC)c2c(=O)c1C [stigmatellin]
[1]
  IC50: 0.0028 µM
